# According to paper PMC9146984, “A Novel Proline-Rich Cathelicidin from the Alpaca Vicugna pacos with Potency to Combat Antibiotic-Resistant Bacteria: Mechanism of Action and the Functional Role of the C-Terminal Region” (Membranes, 2022):
# Read-outs that look alike come from different tables or passages of the source. Where a SMILES comes first, the peptide text is derived from it.
# Columns and labels:
# E. coli = experiment: Antimicrobial assay (MIC), E. coli strains; type: cell-based, Escherichia coli; settings: Mueller–Hinton broth without NaCl
# Method: (§1) The reduction of resazurin to resorufin was measured.
# [1] = test system: E. coli BL21 (DE3) Star cell extract, coupled transcription/translation of EGFP; experiment: In vitro transcription/translation inhibition assay (cell-free EGFP synthesis); type: biochemical, Escherichia coli; settings: EGFP fluorescence, 2 h, 30 °C; at least two independent experiments in triplicate; read-out: IC50, inhibition of in vitro protein synthesis in the E. coli cell-free system
# Method: To investigate the effect of cathelicidins on the coupled transcription/translation process, the peptides were added to a cell-free protein synthesis (CFPS) reaction mix with a plasmid encoding enhanced green fluorescent protein (EGFP) variant (F64L, S65T, Q80R, F99S, M153T, and V163A) under control of the T7 promoter as described previously with some modifications. Briefly, the peptides were dissolved in 0.1% BSA in water. Bac7[1–22] was used as a positive control inhibitor. The fluorescence of the sample without inhibitor was set as the 100% value. The reaction proceeded for 2 h in 96-well v-bottom black polystyrene microplates in a plate shaker (30 °C, 1000 rpm). The fluorescence of the synthesized EGFP was measured with the microplate reader AF2200 (λExc = 488 nm, λEm = 510 nm; Eppendorf, Hamburg, Germany). The experimental data were obtained from at least two independent experiments performed in triplicate. Non-linear regression curves were generated using GraphPad Prism v.8.0.1 (GraphPad Software Inc., San Diego, CA, USA).
# E. coli BW25113 ΔompF = type: cell-based, Escherichia coli; settings: Mueller–Hinton broth, 24 h, 37 °C, median
# Method: as §1
# E. coli BW25113 = type: cell-based, Escherichia coli; settings: BW25113, 24 h
# Method: as §1
# E. coli BW25113 ΔsbmA = type: cell-based, Escherichia coli; settings: Mueller–Hinton broth, 24 h, 37 °C, median
# Method: as §1
# E. coli BW25113 ΔmdtM = type: cell-based, Escherichia coli; settings: Mueller–Hinton broth, 24 h, 37 °C, median
# Method: as §1
# E. coli ATCC 25922 = type: cell-based, Escherichia coli; settings: ATCC 25922, 24 h
# Method: as §1
# [2] = test system: human embryonic kidney cells (HEK293T); experiment: Cytotoxicity (MTT assay); type: cell-based; settings: HEK293T, 20 h incubation, MTT (Figure 3D)
# Method: (§2) Hemolytic activity of the peptides was tested against the fresh suspension of human red blood cells (hRBC) using the hemoglobin release assay as described previously. Two experiments were performed with the hRBC from blood samples of independent donors. The quantitative data were represented as average means with standard deviations. The colorimetric 3-(4,5-dimethylthiazol-2-yl)-2,5-diphenyltetrazolium bromide (MTT) dye reduction assay was used to determine the cytotoxicity of the peptides against transformed human embryonic kidney cells (HEK293T). 10^4 cells per well in Dulbecco’s modified Eagle’s medium (DMEM/F12) supplemented with 10% fetal bovine serum (FBS; Invitrogen, Waltham, MA, USA) were placed into 96-well plates and then cultured in the CO2-incubator (5% CO2, 37 °C). After the media were removed, the peptides were dissolved in 100 µL of the same medium and added to cell cultures at different final concentrations. 20 h later, 20 μL of MTT (5 mg/mL; Sigma, St. Louis, MO, USA) was added to each well, and the plates were incubated for 4 h at 37 °C. Then, the media were discarded and a 100 µL dimethyl sulfoxide-isopropanol mixture at a ratio of 1:1 (v/v) was added to each well to dissolve the crystallized formazan. The absorbance at 570 nm was measured by a microplate reader AF2200 (Eppendorf, Hamburg, Germany). The optical density in the wells containing cells cultured without the peptides was assumed to represent 100% cell viability. Two independent experiments were performed for each peptide.
# [3] = test system: E. coli ML-35p cytoplasmic membrane; experiment: Cytoplasmic membrane permeabilization (ONPG hydrolysis); type: cell-based, Escherichia coli; settings: PBS, 37 °C, OD405, 2.5 mM ONPG; two independent experiments
# Method: To examine the ability of the peptides to affect the barrier function of the cytoplasmic bacterial membrane, we slightly modified the previously described procedure with the use of the E. coli ML-35p strain constitutively expressing cytoplasmic β-galactosidase but lacking lactose permease. The state of the E. coli ML-35p inner membrane was assessed based on its permeability to chromogenic marker o-nitrophenyl-β-D-galactopyranoside (ONPG, AppliChem, Darmstadt, Germany), which is the β-galactosidase substrate. The cells were incubated in the trypticase soy broth (TSB) for 16 h at 37 °C, washed three times with phosphate-buffered saline (PBS, pH 7.4) to remove residual growth media, adjusted to the concentration of 2.5 × 10^8 CFU/mL, and stored on ice until used. The assay was performed in PBS as well. The final concentration of E. coli ML-35p cells was 2.5 × 10^7 CFU/mL. The concentration of ONPG was 2.5 mM. Peptide samples were placed in the wells of a 96-well plate with a non-binding surface (NBS, Corning #3641), and the optical density (OD) of the solution rose due to the appearance of o-nitrophenol was measured at 405 nm using a microplate reader AF2200 (Eppendorf, Hamburg, Germany). The final volume in each well was 200 µL. Assays were performed at 37 °C under stirring at 500 rpm. Control experiments were performed under the same conditions without adding a peptide. Two independent experiments were performed, and the curve pattern was similar.
# [4] = test system: human red blood cells (hRBC); experiment: Hemolysis (hemoglobin release assay); type: cell-based; settings: 1.5 h incubation (Figure 3C)
# Method: as §2, with “The optical density in the wells containing cells cultured without the peptides was assumed to represent 100% cell viability. Two independent experiments were performed for each peptide.” left out
compound,measurement,setting,value
CC[C@H](C)[C@H](NC(=O)[C@H](CCCNC(=N)N)NC(=O)[C@@H](N)CCCNC(=N)N)C(=O)N[C@@H](CCCNC(=N)N)C(=O)N[C@@H](CCCNC(=N)N)C(=O)N1CCC[C@H]1C(=O)N[C@@H](CCCNC(=N)N)C(=O)N[C@@H](CC(C)C)C(=O)N1CCC[C@H]1C(=O)N[C@@H](CCCNC(=N)N)C(=O)N1CCC[C@H]1C(=O)N[C@@H](CCCNC(=N)N)C(=O)N[C@H](C(=O)N1CCC[C@H]1C(=O)N[C@@H](CCCNC(=N)N)C(=O)N1CCC[C@H]1C(=O)O)C(C)C [VicBac[1-16]] (H-RRIRRPRLPRPRVPRP-OH),killing of E. coli under salt-free conditions,E. coli,4 to 8 µM
same,IC50,[1],~4 µM
CC[C@H](C)[C@H](NC(=O)[C@H](CCCNC(=N)N)NC(=O)[C@@H]1CCCN1C(=O)[C@H](CCCNC(=N)N)NC(=O)[C@@H]1CCCN1C(=O)[C@@H](NC(=O)[C@H](CCCNC(=N)N)NC(=O)[C@@H]1CCCN1C(=O)[C@H](CCCNC(=N)N)NC(=O)[C@@H]1CCCN1C(=O)[C@H](CC(C)C)NC(=O)[C@H](CCCNC(=N)N)NC(=O)[C@@H]1CCCN1C(=O)[C@H](CCCNC(=N)N)NC(=O)[C@H](CCCNC(=N)N)NC(=O)[C@@H](NC(=O)[C@H](CCCNC(=N)N)NC(=O)[C@@H](N)CCCNC(=N)N)[C@@H](C)CC)C(C)C)C(=O)O [VicBac[1-18]] (H-RRIRRPRLPRPRVPRPRI-OH; N-terminus and C-terminus assumed),"Minimum inhibitory concentration, E. coli strain ΔompF",E. coli BW25113 ΔompF; 0.9% NaCl: +,16 µM
same,"Minimum inhibitory concentration, E. coli strain ΔompF",E. coli BW25113 ΔompF; 0.9% NaCl: −,8 µM
same,"Minimum inhibitory concentration, E. coli strain BW25113",E. coli BW25113,4 µM
same,"Minimum inhibitory concentration, E. coli strain ΔsbmA",E. coli BW25113 ΔsbmA; 0.9% NaCl: +,> 64 µM
same,"Minimum inhibitory concentration, E. coli strain ΔsbmA",E. coli BW25113 ΔsbmA; 0.9% NaCl: −,4 µM
same,"Minimum inhibitory concentration, E. coli strain ΔmdtM",E. coli BW25113 ΔmdtM; 0.9% NaCl: +,2 µM
same,"Minimum inhibitory concentration, E. coli strain ΔmdtM",E. coli BW25113 ΔmdtM; 0.9% NaCl: −,4 µM
same,"Minimum inhibitory concentration, E. coli strain ATCC 25922",E. coli ATCC 25922,2 µM
Melittin [reference compound],concentration at which almost all cells were completely lysed,[2],< 4 µM
same,effect on E. coli ML-35p cytoplasmic membrane permeability for ONPG,[3],significant damage
same,concentration at which almost all cells were completely lysed,[4],< 4 µM
